Experimental findings from US10106516B2, “PDE10 inhibitors and related compositions and methods” (Omeros Corporation, priority 2010, dated 2018) are described below.

Each structure is given as a SMILES string. pIC50: −log10 of the molar value.

For this test, the target named is T1, PDE10 (Homo sapiens, UniProt Q9Y233).
T1 construct: made in house; host or cells: Sf9 insect cells (baculovirus)
T1 sequence (Q9Y233 1-779 isoform Q9Y233-1): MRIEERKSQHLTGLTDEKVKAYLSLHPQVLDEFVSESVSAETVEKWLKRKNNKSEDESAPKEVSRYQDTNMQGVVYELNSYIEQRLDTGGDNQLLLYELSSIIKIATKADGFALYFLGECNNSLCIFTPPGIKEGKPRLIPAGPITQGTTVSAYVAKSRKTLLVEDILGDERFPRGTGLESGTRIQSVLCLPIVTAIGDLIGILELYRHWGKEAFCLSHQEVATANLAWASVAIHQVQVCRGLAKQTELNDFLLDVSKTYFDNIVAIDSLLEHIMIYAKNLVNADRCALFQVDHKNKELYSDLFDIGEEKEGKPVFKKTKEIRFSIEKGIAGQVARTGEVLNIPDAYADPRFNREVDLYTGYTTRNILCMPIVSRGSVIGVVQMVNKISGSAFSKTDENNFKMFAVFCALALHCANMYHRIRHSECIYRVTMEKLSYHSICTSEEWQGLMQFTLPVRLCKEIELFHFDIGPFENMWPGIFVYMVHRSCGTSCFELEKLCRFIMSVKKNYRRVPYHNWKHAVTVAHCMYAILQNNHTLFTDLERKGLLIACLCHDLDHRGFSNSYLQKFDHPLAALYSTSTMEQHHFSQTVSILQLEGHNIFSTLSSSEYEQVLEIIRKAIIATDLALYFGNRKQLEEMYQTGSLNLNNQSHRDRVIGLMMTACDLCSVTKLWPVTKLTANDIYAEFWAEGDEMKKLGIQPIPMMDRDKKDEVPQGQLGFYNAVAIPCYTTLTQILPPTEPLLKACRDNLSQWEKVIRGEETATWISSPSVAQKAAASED
In words: PDE10 biochemical assay (two-step Thompson and Appleman method or SPA). Particulars: PDE10 inhibition. Here is the method: In short, cAMP is spiked with (^3H)cAMP and incubated with PDE10 and various concentrations of a compound of structure (I). After the appropriate incubation time, the reaction is terminated by heating. The mixture is then subjected to treatment with snake venom phosphatase. The phosphatase hydrolyzes any AMP in the mixture, but leaves unreacted cAMP intact. Thus, by separating cAMP from the mixture and determining its concentration (by radiography), the percent of inhibition can be determined. IC50 values can be calculated by performing the experiment at several concentrations using standard graphical means. A detailed description of the actual technique used for IC50 assays as set forth in following Examples.
The phosphodiesterase (PDE) assay was performed using recombinant human PDE 1A3, 2A3, 3 catalytic region, 4 catalytic region, 5 catalytic region, 7A, 8A, 9A2, 10A1 and 11A1 enzymes expressed in a baculoviral system using Sf9 cells. PDE activity was measured using a modification of the two-step method of Thompson and Appleman described above which was adapted for 96 well plate format. […] The final assay volume was 110 μl with assay buffer (10 mM MgCl2; 40 mM Tris.HCl; pH 7.4). Reactions were initiated with enzyme and incubated with (^3H)-substrate and substance for 20 minutes at 30° C. The reaction was terminated by denaturing the enzyme (heating the reaction to 70° C. for 2 minutes). The reaction was then cooled at 4° C. for 10 minutes before the addition of snake venom (Crotalus atrox, 0.2 mg/ml) for 10 minutes at 30° C., thus allowing non-specific hydrolysis of the tritiated substrate. Separation of the remaining unhydrolysed cyclic nucleotide was achieved by a batch binding of the mixture to activated Dowex (200 μl) anion exchange resin. The anion exchange resin bound the charged nucleotides, leaving only hydrolysed (^3H) substrate in the soluble fraction. The soluble fraction (50 μl) was then added to microscint-20 (200 μl) and counted on a Top Count Plate reader. Radioactivity units were plotted against inhibitor concentration and IC50 values obtained using Graph Pad Prism software.
Alternatively, phosphodiesterase activity was measured by scintillation proximity assay (SPA) with [^3H]-cGMP as substrate. Purified PDE10 was diluted and stored in 25 mM Tris-Cl (pH 8.0)/100 mM NaCl/0.05% Tween 20/50% glycerol/3 mM DTT. Assays contained (final concentrations): 50 mM Tris-Cl (pH 7.5)/8.3 mM MgCl2/1.7 mM EGTA/0.5 mg/ml BSA/5% DMSO and 2 ng PDE10 in a final volume of 0.1 mL. Inhibition was evaluated at 8 concentrations in duplicate. Reactions were initiated by addition of enzyme and were terminated after 20 minutes at 30° C. by the addition of 50 μl of SPA beads containing Zn^++. The mixture was shaken, allowed to settle for 3 hours, and counted in a Wallac plate counter. Results (net cpm) were fitted to a four parameter logistic model using Excel Solver®.
`COc1cc(-c2ccc(C(=O)C(OC)c3ccc(N4CCOCC4)nc3)o2)cc(OC)c1Br` (stereo not shown) [Compound 44-1, 1-(5-(4-Bromo-3,5-Dimethoxyphenyl)Furan-2-Yl)-2-Methoxy-2-(6-Morpholinopyridin-3-Yl)Ethanone]: the negative logarithm of the IC50 (pIC50) (as a rule, −log10 of the IC50, conventionally taken in molar units) is at least 6.00.

For `COc1cc(-c2coc(C(=O)C(OC)c3ccc(-n4nccn4)cc3)n2)cc(OC)c1Br` (stereo not shown) [Compound 65-5], the negative-log IC50 (pIC50) was at least 6.00.

In the case of `COc1cc(-c2ccc(C(=O)C(OC)c3ccc(-c4nnc(C)o4)cc3)o2)cc(Cl)c1OC` (stereo not shown) [Compound 40-1, 1-(5-(3-Chloro-4,5-Dimethoxyphenyl)Furan-2-Yl)-2-Methoxy-2-(4-(5-Methyl-1,3,4-Oxadiazol-2-Yl)Phenyl)Ethanone], the pIC50 is at least 6.00.

`COc1cc(-c2ccc(C(=O)C(OC)c3ccc(-n4cccn4)cc3)o2)cc(OC)c1OC` (stereo not shown) [Compound 65-9] had a pIC50 of at least 6.00.

As to `COc1cc(-c2ccc(C(=O)C(OC)c3cccc4ncccc34)o2)cc(OC)c1Br` (stereo not shown) [Compound 20-1, 1-(5-(4-Bromo-3,5-Dimethoxyphenyl)Furan-2-Yl)-2-Methoxy-2-(Quinolin-5-Yl)Ethanone], the pIC50 is at least 6.00.

`COc1ccc(-c2ccn(C(=O)C(OC)c3ccc(N4CCOCC4)cc3)n2)cc1OC` (stereo not shown) [Compound 53-1, 1-(3-(3,4-Dimethoxyphenyl)-1H-Pyrazol-1-Yl)-2-Methoxy-2-(4-Morpholinophenyl)Ethanone] showed a pIC50 of at least 6.00.

In the case of `COc1cc(-c2ccc(C(=O)C(OC)c3ccc(-c4ccc(C)o4)cc3)o2)cc(OC)c1Br` (stereo not shown) [Compound 16-1, 1-(5-(4-Bromo-3,5-Dimethoxyphenyl)Furan-2-Yl)-2-Methoxy-2-(4-(5-Methylfuran-2-Yl)Phenyl)Ethanone], the pIC50 is at least 6.00.

For `COc1cc(-c2ccc(C(=O)C(OC)c3ccc(-n4nccn4)cc3)o2)cc(OC)c1Br` (stereo not shown) [Compound 30-1, 2-(4-(2H-1,2,3-Triazol-2-Yl)Phenyl)-1-(5-(4-Bromo-3,5-Dimethoxyphenyl)Furan-2-Yl)-2-Methoxyethanone], the pIC50 was at least 6.00.

`COc1cc(-c2ccc(C(=O)C(OC)c3ccc(-n4cccn4)cc3)o2)cc(OC)c1Br` (stereo not shown) [Compound 14-1, 2-(4-(1H-Pyrazol-1-Yl)Phenyl)-1-(5-(4-Bromo-3,5-Dimethoxyphenyl)Furan-2-Yl)-2-Methoxyethanone]: the negative-log IC50 (pIC50) was at least 6.00.

In turn, `CCOC(C(=O)c1ccc(-c2cc(OC)c(Br)c(OC)c2)o1)c1ccc(N2CCOCC2)cc1` (stereo not shown) [Compound 38-1, 1-(5-(4-Bromo-3,5-Dimethoxyphenyl)Furan-2-Yl)-2-Ethoxy-2-(4-Morpholinophenyl)Ethanone] had a pIC50 of at least 6.00.

Take `COc1cc(-c2ccc(C(=O)C(OC)c3ccc(N4CCOCC4)cc3)o2)cc(OC)c1OC` (stereo not shown) [Compound 65-7]: the pIC50 was at least 6.00.

Regarding `COc1cc(-c2ccc(C(=O)C(OC)c3ccc(-c4nnc(C)o4)cc3)o2)cc(Br)c1OC` (stereo not shown) [Compound 39-1, 1-(5-(3-Bromo-4,5-Dimethoxyphenyl)Furan-2-Yl)-2-Methoxy-2-(4-(5-Methyl-1,3,4-Oxadiazol-2-Yl)Phenyl)Ethanone], the pIC50 was at least 6.00.

The compound `COc1cc(-c2ccc(C(=O)C(OC)c3ccc(-c4nnc(C)s4)cc3)o2)cc(OC)c1OC` (stereo not shown) [Compound 65-8] showed a negative logarithm of the IC50 (pIC50) of at least 6.00.

`COc1cc(-c2ccc(C(=O)C(OC)c3ccc(-c4cn[nH]c4)cc3)o2)cc(OC)c1Br` (stereo not shown) [Compound 15-1, 2-(4-(1H-Pyrazol-4-Yl)Phenyl)-1-(5-(4-Bromo-3,5-Dimethoxyphenyl)Furan-2-Yl)-2-Methoxyethanone] gave a pIC50 of at least 6.00.

As to `COc1cc(-c2ccc(C(=O)C(OC)c3ccc(-n4ccnn4)cc3)o2)cc(OC)c1Br` (stereo not shown) [Compound 31-1, 2-(4-(1H-1,2,3-Triazol-1-Yl)Phenyl)-1-(5-(4-Bromo-3,5-Dimethoxyphenyl)Furan-2-Yl)-2-Methoxyethanone], the pIC50 is at least 6.00.

Compound `COc1cc(-c2ccc(C(=O)C(OCC3CC3)c3ccc(N4CCOCC4)cc3)o2)cc(OC)c1Br` (stereo not shown) [Compound 41-1, 1-(5-(4-Bromo-3,5-Dimethoxyphenyl)Furan-2-Yl)-2-(Cyclopropylmethoxy)-2-(4-Morpholinophenyl)Ethanone] gave a pIC50 of at least 6.00.

On to `COc1cc(-c2cnc(C(=O)C(OC)c3ccc(N4CCOCC4)cc3)o2)cc(OC)c1Br` (stereo not shown) [Compound 56-1, 1-(5-(4-Bromo-3,5-Dimethoxyphenyl)Oxazol-2-Yl)-2-Methoxy-2-(4-Morpholinophenyl)Ethanone], for which the pIC50 is at least 6.00.

In the case of `COc1cc(-c2nc(C(=O)C(OC)c3ccc(N4CCOCC4)cc3)no2)cc(OC)c1Br` (stereo not shown) [Compound 54-1, 1-(5-(4-Bromo-3,5-Dimethoxyphenyl)-1,2,4-Oxadiazol-3-Yl)-2-Methoxy-2-(4-Morpholinophenyl)Ethanone], the pIC50 is at least 6.00.

For the compound `COc1cc(-c2ccc(C(=O)C(OC)c3ccc(-c4nnc(C5CC5)o4)cc3)o2)cc(OC)c1OC` (stereo not shown) [Compound 60-1, 2-(4-(5-Cyclopropyl-1,3,4-Oxadiazol-2-Yl)Phenyl)-2-Methoxy-1-(5-(3,4,5-Trimethoxyphenyl)Furan-2-Yl)Ethanone], the pIC50 is at least 6.00.

`COc1cc(-c2ccc(C(=O)C(OC)c3ccc(-c4cnccn4)cc3)o2)cc(OC)c1Br` (stereo not shown) [Compound 45-1, 1-(5-(4-Bromo-3,5-Dimethoxyphenyl)Furan-2-Yl)-2-Methoxy-2-(4-(Pyrazin-2-Yl)Phenyl)Ethanone]: the pIC50 is at least 6.00.

`COc1cc(-c2ccc(C(=O)C(OC)c3ccc(-c4nnc(C5CC5)o4)cc3)o2)cc(OC)c1Br` (stereo not shown) [Compound 22-1, 1-(5-(4-Bromo-3,5-Dimethoxyphenyl)Furan-2-Yl)-2-(4-(5-Cyclopropyl-1,3,4-Oxadiazol-2-Yl)Phenyl)-2-Methoxyethanone] had a pIC50 of at least 6.00.

In the case of `COc1cc(-c2coc(C(=O)C(OC)c3ccc(OC(F)(F)F)cc3)n2)cc(OC)c1Br` (stereo not shown) [Compound 65-3], the pIC50 was at least 6.00.

Compound `COc1cc(OC)cc(-c2ccc(C(=O)C(OC)c3ccc(N4CCOCC4)cc3)o2)c1` (stereo not shown) [Compound 27-1, 1-(5-(3,5-Dimethoxyphenyl)Furan-2-Yl)-2-Methoxy-2-(4-Morpholinophenyl)Ethanone] showed a pIC50 of at least 6.00.

`COc1cc(-c2cn(C)c(C(=O)C(OC)c3ccc(N4CCOCC4)cc3)n2)cc(OC)c1Br` (stereo not shown) [Compound 4-1, 1-(4-(4-Bromo-3,5-Dimethoxyphenyl)-1-Methyl-1H-Imidazol-2-Yl)-2-Methoxy-2-(4-Morpholinophenyl)Ethanone] showed a pIC50 of at least 6.00.

In turn, `COc1cc(-c2ccc(C(=O)C(OC)c3ccc(N4CCOCC4)cc3)o2)cc(OC)c1OC(F)F` (stereo not shown) [Compound 28-1, 1-(5-(4-(Difluoromethoxy)-3,5-Dimethoxyphenyl)Furan-2-Yl)-2-Methoxy-2-(4-Morpholinophenyl)Ethanone] had a pIC50 of at least 6.00.

For `COc1cc(-c2ccc(C(=O)C(OC)c3ccc(-c4nnc(C)o4)cc3)s2)cc(OC)c1Br` (stereo not shown) [Compound 57-1, 1-(5-(4-Bromo-3,5-Dimethoxyphenyl)Thiophen-2-Yl)-2-Methoxy-2-(4-(5-Methyl-1,3,4-Oxadiazol-2-Yl)Phenyl)Ethanone], the negative-log IC50 (pIC50) was at least 6.00.

The compound `COc1cc(-c2coc(C(=O)C(OC)c3ccc(-n4cc(C)cn4)cc3)n2)cc(OC)c1Br` (stereo not shown) [Compound 65-6] had a pIC50 of at least 6.00.

Regarding `COc1cc(-c2ccc(C(=O)C(OC)c3ccc(-c4nnn(C)n4)cc3)o2)cc(OC)c1Br` (stereo not shown) [Compound 33-1, 1-(5-(4-Bromo-3,5-Dimethoxyphenyl)Furan-2-Yl)-2-Methoxy-2-(4-(2-Methyl-2H-Tetrazol-5-Yl)Phenyl)Ethanone], the pIC50 was at least 6.00.

As to `COc1cc(-c2coc(C(=O)C(OC)c3ccc(-n4ccnn4)cc3)n2)cc(OC)c1Br` (stereo not shown) [Compound 65-4], the pIC50 is at least 6.00.

Turning to `COc1cc(-c2ccc(C(=O)C(OC)c3ccc(N4CCCS4(=O)=O)cc3)o2)cc(OC)c1Br` (stereo not shown) [Compound 19-1, 1-(5-(4-Bromo-3,5-Dimethoxyphenyl)Furan-2-Yl)-2-(4-(1,1-Dioxidoisothiazolidin-2-Yl)Phenyl)-2-Methoxyethanone], the pIC50 was at least 6.00.

Compound `COc1cc(-c2ccc(C(=O)C(OC)c3ccc(-c4nnc(C)o4)cc3)o2)cc(OC)c1Br` (stereo not shown) [Compound 13-1, 1-(5-(4-Bromo-3,5-Dimethoxyphenyl)Furan-2-Yl)-2-Methoxy-2-(4-(5-Methyl-1,3,4-Oxadiazol-2-Yl)Phenyl)Ethanone] showed a negative-log IC50 (pIC50) of at least 6.00.
